Results as given in PubChem BioAssay (NCI).
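In this assay, cells in 96-well plates receive the compound at five concentrations for 48 hours. Endpoints are linearly interpolated between the surrounding concentrations. At the GI50, growth is halved. Definition used: TGI = concentration required for complete inhibition of growth.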

What was measured:
Assay in all cases: NCI anticancer screen, dose series, 48 h
HCT-116 colon = test system: HCT-116 colon
KM12 colon = test system: KM12 colon
NCI-H226 lung = test system: NCI-H226 lung
PC-3 prostate = test system: PC-3 prostate
RPMI-8226 leukemia = test system: RPMI-8226 leukemia
SF-295 CNS = test system: SF-295 CNS
SF-539 CNS = test system: SF-539 CNS
SR leukemia = test system: SR leukemia
TK-10 renal = test system: TK-10 renal
UACC-62 melanoma = test system: UACC-62 melanoma

Row | Compound | GI50 (HCT-116 colon) [µM] | TGI (HCT-116 colon) [µM] | GI50 (KM12 colon) [µM] | TGI (KM12 colon) [µM] | GI50 (NCI-H226 lung) [µM] | TGI (NCI-H226 lung) [µM] | GI50 (PC-3 prostate) [µM] | TGI (PC-3 prostate) [µM] | GI50 (RPMI-8226 leukemia) [µM] | TGI (RPMI-8226 leukemia) [µM] | GI50 (SF-295 CNS) [µM] | TGI (SF-295 CNS) [µM] | GI50 (SF-539 CNS) [µM] | TGI (SF-539 CNS) [µM] | GI50 (SR leukemia) [µM] | TGI (SR leukemia) [µM] | GI50 (TK-10 renal) [µM] | TGI (TK-10 renal) [µM] | GI50 (UACC-62 melanoma) [µM] | TGI (UACC-62 melanoma) [µM]
1 | O=c1[nH]c(=O)n(C2CC(O)C(CO)O2)cc1CO (configuration not stated) | > 100 | > 100 | > 100 | > 100 | > 100 | > 100 | > 100 | > 100 | > 100 | > 100 | > 100 | > 100 | 21.1 | > 100 | > 100 | > 100 | > 100 | > 100 | > 100 | > 100
2 | COc1ccc(-c2oc(=O)ccc2-c2cc(OC)c(OC)c(OC)c2)cc1F | 10.9 | > 100 | 4.52 | > 100 | 66.4 | > 100 | 37.2 | > 100 | 11.1 | 61.4 | 6.67 | 89.7 | 19.8 | 80.3 | 1.57 | 9.44 | 39.4 | > 100 | 10.2 | > 100
3 | N#Cc1c(-c2ccc(F)cc2)c(-c2ccc(F)cc2)nn(CCO)c1=O | – | 7.04 | – | 4.49 | – | > 4.64 | – | 54.7 | – | > 100 | – | 37.2 | – | 0.553 | – | > 100 | – | > 100 | – | > 77
4 | Ic1ccc(-n2nnnc2-c2cnoc2-c2ccccc2)cc1 | > 43 | > 70 | 47.1 | > 89.6 | 43 | > 78.9 | > 34.4 | > 71.4 | 22.4 | > 64 | 38.2 | > 77.8 | – | 3.98 | 37.7 | > 100 | 41.5 | > 82.3 | 29.3 | > 83.6
5 | O=c1cc(-c2ccccc2)[nH]c2c(S)cccc12 | – | > 100 | – | > 100 | – | 99.7 | – | > 100 | – | > 100 | – | > 100 | – | > 100 | – | > 100 | – | > 100 | – | > 100
6 | Cc1cn2c(/C=C3\C(=O)Nc4ccc(O)cc43)c(-c3ccc(Cl)cc3)nc2s1 | 15.6 | 42.5 | 45.4 | > 100 | 18.5 | 51 | 22.2 | > 100 | 34.5 | > 100 | 15.2 | 41.4 | 17.5 | 33.9 | 2.59 | 7.63 | 18.7 | 52.2 | 9.4 | 56.2
7 | COc1cc(C2c3cc4c(cc3C(O)C(CO)C2CO)OCO4)cc(OC)c1OC (configuration not stated) | 0.492 | > 100 | 0.494 | > 47 | 7.47 | > 100 | 0.596 | > 100 | 1.59 | > 100 | 0.219 | 0.468 | 0.335 | – | 0.342 | > 48.5 | > 23.2 | > 100 | 0.534 | > 100
8 | COc1ccc2[nH]cc(-c3nc(-c4c[nH]c5ncccc45)cs3)c2c1 | 2.9 | 21 | 3.56 | > 100 | 3.93 | > 100 | 4.33 | > 100 | 4.76 | > 100 | 2.66 | 6.87 | 4.88 | > 100 | 2.91 | > 100 | 5.47 | > 100 | 3.66 | > 100
9 | Oc1cc(O)c2c(c1)OC(c1ccc(O)c(O)c1)C(OC1(c3cc(O)c(O)c(O)c3)Oc3cc(O)cc(O)c3C(O)C1O)C2 (configuration not stated) | – | 62 | – | > 70.9 | – | 50.9 | – | > 100 | – | 49.5 | – | > 100 | – | > 74.9 | – | 84.7 | – | > 100 | – | > 100
10 | O=C(c1ccc(Cl)cc1)c1cnc(Nc2ccccc2Cl)s1 | – | 41.7 | – | > 78.3 | – | > 64.3 | – | 55.5 | – | > 100 | – | 44.3 | – | 55.3 | – | > 100 | – | 34.9 | – | 66.4
11 | N#C/C=C(\c1ccc([N+](=O)[O-])cc1)n1nnc2cc(Cl)c(Cl)cc21 | 1.34 | 2.7 | 2.62 | 11.3 | 3 | 17.1 | 1.56 | 4 | 0.604 | 2.91 | – | – | 1.77 | 3.26 | 1.52 | > 100 | 2.6 | 4.16 | 1.77 | 3.95
12 | Cc1nc2cnc(N)c(C#Cc3cncc(C(=O)Nc4ccc(CN5CCN(C)CC5)c(C(F)(F)F)c4)c3)c2nc1C | 0.219 | 1.57 | – | 1.44 | 0.188 | 2.61 | 1.48 | 17.4 | 1.65 | 8.51 | 3.02 | 19.6 | 0.313 | 3.69 | 1.67 | 10.9 | 0.496 | 3.2 | 0.116 | 1.07
13 | CC1(C)OCCn2c1nc1c(N3CCOCC3)nc(-c3cnc(N)nc3)nc12 | 0.337 | > 100 | 0.761 | > 100 | 0.227 | 8.75 | 0.318 | > 68.6 | 2.14 | 12.5 | 0.213 | 1.92 | 0.316 | 2.55 | 0.752 | > 83.6 | 0.109 | 0.676 | 0.185 | 1.42
14 | Cc1nc2ccccc2nc1-c1ccc(N=[N+]([O-])c2ccc(-c3nc4ccccc4nc3C)cc2)cc1 | – | > 100 | – | > 100 | – | > 100 | – | > 100 | – | > 100 | – | > 100 | – | > 100 | – | > 100 | – | 50.5 | – | > 100
15 | Nc1nc(N)c(N=Nc2ccc([As](=O)(O)O)cc2)c(=O)[nH]1 | – | > 100 | – | > 100 | – | > 100 | – | > 100 | – | > 100 | – | > 100 | – | – | – | > 100 | – | > 100 | – | > 100
16 | Nc1nccc2c1ccn2-c1ccc(NC(=O)c2ccc(N3CCOCC3)c(C(F)(F)F)c2)cc1 | 0.873 | 11.1 | 0.557 | 8.5 | 5.62 | 20 | 0.499 | 17.4 | 0.311 | 2.88 | 0.204 | 0.515 | 0.491 | 5.96 | 0.684 | > 100 | 1.52 | 9.75 | 0.337 | 1.19
17 | COC1C(O)=C2C(=O)O/C(C)=C/C=C/C=C/C=C\CC(c3ccccc3)NC(=O)\C=C/C=C\C=C\C=C\[C@@]2(C)[C@@H]1O (some centres not stated) | – | 0.0198 | – | 0.165 | – | 0.273 | – | 0.103 | – | 0.0445 | – | 0.0238 | – | 0.047 | – | 0.165 | – | 0.272 | – | 0.551
18 | CCN1CCN=c2c3cc(OC)ccc3n3cnc4ccc1c2c43 | – | 0.194 | – | 1.21 | – | 0.718 | – | 0.8 | – | 0.558 | – | 1.29 | – | 0.413 | – | 0.158 | – | 6.66 | – | 0.975
19 | CCN(CC)c1nc(-c2ccc(Cl)cc2Cl)nc2ccccc12 | 14.8 | 29 | 20.2 | 59.8 | 12.4 | 31.2 | 24.1 | > 63.3 | 32.1 | > 100 | 22.8 | 62.4 | 20.3 | 41.9 | 8.68 | > 53.2 | 23.8 | 63.3 | 13.7 | 41.3
20 | Cc1[nH]c2ccccc2c1-c1cc(-c2cc(-c3c(C)[nH]c4ccccc34)on2)no1 | – | > 100 | – | > 100 | – | > 100 | – | > 100 | – | > 100 | – | > 100 | – | > 100 | – | 96.7 | – | > 100 | – | > 100
21 | CC(=O)OC12c3ccccc3-c3ccccc3C1C1C(=O)N(C)C(=O)C12Cl (configuration not stated) | – | – | – | > 10 | – | > 10 | – | > 10 | – | > 10 | – | > 10 | – | > 10 | – | > 10 | – | > 10 | – | –
22 | O=c1cc2oc3cc(O)c(O)cc3c(-c3ccccc3O)c-2cc1O | 3.81 | 21.9 | 30.7 | > 100 | 14.4 | > 100 | 36.1 | > 100 | – | – | 19.6 | 61.3 | 6.16 | > 100 | 4.65 | > 100 | 21.9 | > 100 | 6.25 | 86
23 | COc1ccc(C(O)c2nccn2C)c(OC)c1 (configuration not stated) | – | > 100 | – | > 100 | – | > 100 | – | > 100 | – | > 100 | – | > 100 | – | > 100 | – | > 100 | – | > 100 | – | > 100
24 | O=C(CC(O)(C(F)(F)F)C(F)(F)F)c1cc(CC(=O)C(O)(C(F)(F)F)C(F)(F)F)cc(CC(=O)C(O)(C(F)(F)F)C(F)(F)F)c1 | – | 2.56 | – | 2.96 | – | > 6.85 | – | 3.95 | – | > 10 | – | 4.47 | – | 4.9 | – | > 10 | – | 8.36 | – | 4.11
25 | Nc1c(C(=O)Nc2cccc(Br)c2)sc2nc3c(cc12)C(=O)CCC3 | 0.534 | > 100 | 0.349 | > 100 | 16.8 | > 100 | 0.457 | > 100 | > 49.9 | > 100 | 0.455 | > 59.7 | 0.448 | > 100 | 0.525 | > 100 | 13.9 | > 100 | 0.516 | > 100
26 | C=CCc1cccc(/C=N/NC(=O)CN2CCN(Cc3ccccc3)CC2)c1O | 1.71 | 13.8 | 2.56 | 15 | 2.64 | 14 | 3.45 | 16.1 | 1.47 | 12.7 | 0.649 | 4.04 | 2.32 | 9.49 | 0.772 | 4.24 | 0.925 | 15.1 | 3.28 | 12.8
27 | CCCCCCNC(=O)c1nc(-c2ccccc2)oc1Cc1ccc(OP(=O)(O)O)cc1 | 17.1 | 32.6 | 17.5 | 33.2 | 17 | 33.5 | 17.9 | 34.5 | 20.4 | 49 | – | – | 16.9 | 32.2 | 21.5 | 50.2 | 16.9 | 32.9 | 14 | 27.9
28 | CCOC(=O)C(=Cc1cccc(Cl)c1)C(=O)OCC | 1.82 | 3.83 | 2.35 | 5.8 | 2.49 | 6.18 | 2.05 | 4.21 | 2.1 | 5.32 | 3.61 | 13.4 | 1.66 | 3.14 | 1.55 | > 100 | 2.46 | 6.08 | 1.65 | 3.58
29 | CCOc1ccc2nc(S/C(=C/C=C(C#N)C#N)c3ccc(C)cc3)sc2c1 | 17.3 | 31.6 | 35.9 | > 100 | 20.3 | 42.4 | 33.9 | > 100 | – | – | 22.8 | 60.8 | 26 | 57.2 | 2.92 | 7.43 | 27.2 | 94.6 | 22 | 54.1
30 | COC12C=C/C(=C(/C(=O)OCc3ccncc3)C(=O)CCCCCCCCC3(OC)C=C/C(=C(/C(=O)OCc4ccncc4)C(=O)CCCCCCCC1)O3)O2 | 0.111 | 0.239 | 0.78 | 1.78 | – | – | 0.761 | 2.67 | 0.196 | 1.1 | 0.899 | 3.29 | 0.877 | 2.03 | 0.191 | 7.01 | 1.6 | 3.67 | – | –
